Here are results for 25 compounds from patent US9586968B2, “Bicycloamine-substituted-N-benzenesulfonamide compounds with selective activity in voltage-gated sodium channels” (Merck Sharp & Dohme Corp., priority 2013, dated 2017).

SMILES strings stand for the structures. pIC50: −log10 of the molar value.

The target of assay [1] is T1, human Nav1.7 (Homo sapiens, UniProt Q15858).
T1 construct: expressed in transfected cells
Nature of the assay: PatchXpress automated patch-clamp, inactivated state block of Nav1.7. The format is cell-based. As to conditions: channels stably expressed in HEK 293 cells, 22° C., read-out: potency for the Nav 1.7 sodium ion channel (as measured by PatchXpress). The method, then:
(§1) Compounds were tested on human Nav1.7 and Nav1.5 channels stably expressed in HEK 293 cells. Activity toward Nav 1.7 and Nav 1.5 channels was assessed using the following assay methodology.
(§2) Sodium Current Measurements on the PatchXpress 7000®:
(§3) To measure inactivated state block of sodium channels, test compounds were characterized in an automated PatchXpress® assay (Molecular Devices) using a double-pulse protocol on human Nav1.7 and Nav1.5 channels stably expressed in HEK 293 cells. Cells were held at a potential 20 mV negative to V0.5 inact. An 8000 ms pre-pulse 7 mV positive to V0.5 inact was given followed by a hyperpolarizing 2 ms pulse to −120 mV and a 20 ms test pulse to −20 mV. Protocol was applied to cells in the absence, presence of compound and after washout. The temperature of PatchXpress instruments was maintained at 22° C. The following recording solutions were used. Internal solution (mM): 30 CsCl, 5 HEPES, 10 EGTA, 120 CsF, 5 NaF, 2 MgCl2. External solution (mM): 120 NMDG, 40 NaCl, 1 KCl, 0.5 MgCl2, 5 HEPES, 2.7 CaCl2.
(§4) For all electrophysiology experiments, offline analysis was used to correct for current rundown and to determine percent inhibition as a function of drug concentration. IC50 values were determined by fitting to the Hill equation.
In general terms: The patch-clamp technique gives a direct electrical read-out from membranes.

Assay [2] concerns the target T2, human Nav1.5 (Homo sapiens, UniProt Q14524).
T2 construct: expressed in transfected cells
The assay is described as follows: PatchXpress automated patch-clamp, inactivated state block of Nav1.5 (selectivity). It counts as cell-based. As to conditions: determined by PatchXpress measurement, HEK 293 cells. The method, then: as §1, §2, §3, §4

T2 sequence (Q14524 whole entry): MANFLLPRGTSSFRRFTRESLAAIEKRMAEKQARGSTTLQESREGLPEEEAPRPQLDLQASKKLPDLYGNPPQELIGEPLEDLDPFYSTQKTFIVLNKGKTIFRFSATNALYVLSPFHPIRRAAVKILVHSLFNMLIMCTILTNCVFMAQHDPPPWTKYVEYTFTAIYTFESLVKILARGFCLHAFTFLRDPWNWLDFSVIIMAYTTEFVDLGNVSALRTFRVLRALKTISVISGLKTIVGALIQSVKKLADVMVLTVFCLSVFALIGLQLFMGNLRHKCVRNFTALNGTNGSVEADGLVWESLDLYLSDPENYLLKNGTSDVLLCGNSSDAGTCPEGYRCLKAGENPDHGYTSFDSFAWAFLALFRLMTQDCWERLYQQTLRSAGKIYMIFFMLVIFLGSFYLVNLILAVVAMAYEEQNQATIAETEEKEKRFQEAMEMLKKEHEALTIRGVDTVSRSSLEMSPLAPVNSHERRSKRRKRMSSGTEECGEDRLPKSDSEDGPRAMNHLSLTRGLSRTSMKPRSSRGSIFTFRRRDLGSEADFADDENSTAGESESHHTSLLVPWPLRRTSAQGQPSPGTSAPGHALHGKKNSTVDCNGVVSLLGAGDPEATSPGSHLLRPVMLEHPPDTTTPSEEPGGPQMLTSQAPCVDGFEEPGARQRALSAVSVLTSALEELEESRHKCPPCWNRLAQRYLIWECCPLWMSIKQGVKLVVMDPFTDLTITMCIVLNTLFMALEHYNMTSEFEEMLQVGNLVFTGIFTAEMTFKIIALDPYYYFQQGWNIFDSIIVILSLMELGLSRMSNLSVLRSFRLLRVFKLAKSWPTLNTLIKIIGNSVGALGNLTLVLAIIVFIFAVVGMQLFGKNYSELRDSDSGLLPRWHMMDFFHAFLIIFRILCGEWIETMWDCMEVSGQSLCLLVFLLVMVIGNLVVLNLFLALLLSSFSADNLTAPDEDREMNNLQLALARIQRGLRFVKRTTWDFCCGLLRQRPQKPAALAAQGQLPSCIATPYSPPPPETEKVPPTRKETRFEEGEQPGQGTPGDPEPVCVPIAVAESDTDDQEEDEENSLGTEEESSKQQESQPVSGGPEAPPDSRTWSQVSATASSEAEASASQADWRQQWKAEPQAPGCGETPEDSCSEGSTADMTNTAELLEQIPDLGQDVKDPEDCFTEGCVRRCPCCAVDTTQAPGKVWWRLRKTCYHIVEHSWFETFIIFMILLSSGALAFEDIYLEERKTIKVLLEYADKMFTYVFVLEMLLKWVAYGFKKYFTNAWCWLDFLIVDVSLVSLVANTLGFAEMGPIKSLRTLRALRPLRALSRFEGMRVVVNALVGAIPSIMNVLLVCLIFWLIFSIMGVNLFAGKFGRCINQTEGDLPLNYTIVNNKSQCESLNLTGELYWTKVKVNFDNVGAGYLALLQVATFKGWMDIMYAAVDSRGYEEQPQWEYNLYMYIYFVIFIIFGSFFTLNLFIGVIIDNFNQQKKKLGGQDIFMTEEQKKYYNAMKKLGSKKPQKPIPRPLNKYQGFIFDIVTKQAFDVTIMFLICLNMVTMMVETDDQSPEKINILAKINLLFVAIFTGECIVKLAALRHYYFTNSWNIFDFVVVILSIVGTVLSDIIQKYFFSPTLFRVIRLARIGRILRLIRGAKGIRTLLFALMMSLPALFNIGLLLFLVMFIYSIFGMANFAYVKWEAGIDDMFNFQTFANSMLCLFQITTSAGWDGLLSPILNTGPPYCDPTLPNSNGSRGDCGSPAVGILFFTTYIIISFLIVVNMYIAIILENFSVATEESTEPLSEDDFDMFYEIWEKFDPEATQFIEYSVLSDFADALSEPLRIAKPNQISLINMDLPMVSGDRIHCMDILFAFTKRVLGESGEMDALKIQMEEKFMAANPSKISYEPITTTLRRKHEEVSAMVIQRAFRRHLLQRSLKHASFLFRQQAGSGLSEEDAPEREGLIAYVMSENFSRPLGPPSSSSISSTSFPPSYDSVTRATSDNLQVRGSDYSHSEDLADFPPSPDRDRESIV
T1 sequence (Q15858 whole entry): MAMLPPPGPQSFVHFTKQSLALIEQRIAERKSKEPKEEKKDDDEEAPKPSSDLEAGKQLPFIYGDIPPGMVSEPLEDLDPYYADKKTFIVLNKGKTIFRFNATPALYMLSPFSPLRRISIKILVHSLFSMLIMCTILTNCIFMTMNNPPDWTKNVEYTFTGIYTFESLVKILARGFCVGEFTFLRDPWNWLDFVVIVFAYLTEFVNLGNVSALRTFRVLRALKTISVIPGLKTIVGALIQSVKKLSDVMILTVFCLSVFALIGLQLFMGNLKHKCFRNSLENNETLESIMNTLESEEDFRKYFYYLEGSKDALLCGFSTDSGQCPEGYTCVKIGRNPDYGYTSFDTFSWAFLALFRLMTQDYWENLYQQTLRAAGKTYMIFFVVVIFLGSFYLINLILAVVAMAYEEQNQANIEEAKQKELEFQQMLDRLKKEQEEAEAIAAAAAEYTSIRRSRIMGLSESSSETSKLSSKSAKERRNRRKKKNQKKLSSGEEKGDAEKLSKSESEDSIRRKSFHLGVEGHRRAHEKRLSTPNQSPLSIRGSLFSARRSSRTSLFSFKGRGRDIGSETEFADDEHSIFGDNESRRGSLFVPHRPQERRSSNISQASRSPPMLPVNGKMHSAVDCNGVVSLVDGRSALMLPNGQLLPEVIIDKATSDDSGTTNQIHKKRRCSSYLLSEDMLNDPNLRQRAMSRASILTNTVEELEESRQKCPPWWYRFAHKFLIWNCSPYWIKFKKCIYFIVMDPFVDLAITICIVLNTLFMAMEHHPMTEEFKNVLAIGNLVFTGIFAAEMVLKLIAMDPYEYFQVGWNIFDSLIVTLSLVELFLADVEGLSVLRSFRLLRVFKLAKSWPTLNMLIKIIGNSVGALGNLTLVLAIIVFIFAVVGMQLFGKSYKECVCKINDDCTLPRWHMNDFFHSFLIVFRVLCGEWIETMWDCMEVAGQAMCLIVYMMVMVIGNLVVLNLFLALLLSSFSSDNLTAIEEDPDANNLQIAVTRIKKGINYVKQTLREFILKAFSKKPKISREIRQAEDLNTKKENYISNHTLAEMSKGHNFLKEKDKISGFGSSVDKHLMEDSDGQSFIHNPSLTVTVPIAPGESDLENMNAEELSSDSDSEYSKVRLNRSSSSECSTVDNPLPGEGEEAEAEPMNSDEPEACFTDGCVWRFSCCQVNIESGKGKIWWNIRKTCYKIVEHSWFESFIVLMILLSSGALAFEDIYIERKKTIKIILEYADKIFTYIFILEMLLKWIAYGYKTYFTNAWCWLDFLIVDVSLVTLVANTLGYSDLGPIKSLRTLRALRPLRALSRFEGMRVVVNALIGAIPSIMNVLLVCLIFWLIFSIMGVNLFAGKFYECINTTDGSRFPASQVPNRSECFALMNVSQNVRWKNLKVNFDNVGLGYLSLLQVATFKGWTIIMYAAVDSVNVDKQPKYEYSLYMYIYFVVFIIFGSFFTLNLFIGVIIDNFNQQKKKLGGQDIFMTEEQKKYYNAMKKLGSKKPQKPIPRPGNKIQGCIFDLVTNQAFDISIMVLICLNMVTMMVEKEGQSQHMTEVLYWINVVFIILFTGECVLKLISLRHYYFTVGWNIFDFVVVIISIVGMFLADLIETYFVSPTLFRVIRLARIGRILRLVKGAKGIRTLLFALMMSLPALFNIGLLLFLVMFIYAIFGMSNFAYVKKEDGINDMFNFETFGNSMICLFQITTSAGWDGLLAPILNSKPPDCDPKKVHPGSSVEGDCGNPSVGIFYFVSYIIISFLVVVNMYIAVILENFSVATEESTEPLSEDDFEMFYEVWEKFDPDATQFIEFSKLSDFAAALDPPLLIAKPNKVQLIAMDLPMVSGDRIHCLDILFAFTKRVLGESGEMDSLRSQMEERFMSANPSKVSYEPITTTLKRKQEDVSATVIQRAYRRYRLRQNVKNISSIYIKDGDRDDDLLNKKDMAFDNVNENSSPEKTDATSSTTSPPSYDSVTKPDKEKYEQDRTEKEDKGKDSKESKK

Consider `O=S(=O)(Nc1nccs1)c1cc(Cl)c(NC[C@]23CCCN2[C@@H](CO)CC3)cc1F` (single isomer, unassigned) [Ex14-11-B], for which the pIC50 in assay [1] was 8.00. In assay [2], the “ratio of Nav1.7 potency:Nav 1.5 potency” value is 3045.
For the compound `C[C@H]1CC[C@]2(CNc3cc(F)c(S(=O)(=O)Nc4nccs4)cc3Cl)CCCN12` (single isomer, unassigned) [Ex11-8-A], the pIC50 in assay [1] was 7.46. The “ratio of Nav1.7 potency:Nav 1.5 potency” value in assay [2] worked out at 305.
With `O=S(=O)(Nc1nccs1)c1cc(Cl)c(NC[C@@]23CCCN2[C@H](CO)CC3)cc1F` (single isomer, unassigned) [Ex14-11-A], the pIC50 in assay [1] was 7.55. For the same compound, in assay [2], the “ratio of Nav1.7 potency:Nav 1.5 potency” value is given as 1062.
The corresponding values for `O=S(=O)(Nc1nccs1)c1cc(Cl)c(NCC23CCCCN2CCC3)cc1F` (single isomer, unassigned) [Ex17-7-A, (S or R) 5-chloro-2-fluoro-4-(((octahydroindolizin-8a-yl)methyl)amino)-N-(thiazol-2-yl)benzenesulfonamide] are 6.95 and 450.
The like results for `COc1ccc(C[C@H]2CN3CCC[C@@]3(CNc3cc(F)c(S(=O)(=O)Nc4nccs4)cc3Cl)C2)cc1` (single isomer, unassigned) [Ex15-10-A] were, in that order, 8.70 and 918.
The like results for `CC1(C)CN2CCCC2(CNc2cc(F)c(S(=O)(=O)Nc3ncc(Cl)s3)cc2Cl)C1` (single isomer, unassigned) [Ex8-19-B, (S or R) 5-chloro-N-(5-chlorothiazol-2-yl)-4-(((2,2-dimethylhexahydro-1H-pyrrolizin-7a-yl)methyl)amino)-2-fluorobenzenesulfonamide] were, in that order, 6.87 and 265.
Turning to `CC1CCC2(CNc3ccc(S(=O)(=O)Nc4nccs4)cc3C(F)(F)F)CCCN12` (single isomer, unassigned) [Ex11-10-A, 4-((((3S,7aS or 3R,7aR)-3-methyl-hexahydro-1H-pyrrolizin-7a-yl)methyl)-amino)-N-(thiazol-2-yl)-3-(trifluoromethyl)-benzenesulfonamide], in assay [1], the pIC50 is 7.66. Also, the “ratio of Nav1.7 potency:Nav 1.5 potency” value in assay [2] amounted to 1376.
The like results for `N#Cc1cc(S(=O)(=O)Nc2ncns2)ccc1NCC12CCCN1CCC2` [Ex1-6, 3-cyano-4-[(tetrahydro-1H-pyrrolizin-7a(5H)-ylmethyl)amino]-N-(1,2,4-thiadiazol-5-yl)benzenesulfonamide] were, in that order, 7.07 and 349.
The like results for `CC1(C)CN2CCCC2(CNc2cc(F)c(S(=O)(=O)Nc3ncc(F)s3)cc2Cl)C1` (single isomer, unassigned) [Ex8-21-A, (R or S) 5-chloro-4-(((2,2-dimethylhexahydro-1H-pyrrolizin-7a-yl)methyl)amino)-2-fluoro-N-(5-fluorothiazol-2-yl)benzenesulfonamide] were, in that order, 7.46 and 851.
The corresponding values for `O=S(=O)(Nc1nccs1)c1cc(Br)c(NCC23CCCN2CCC3)cc1F` [Ex1-17, 5-bromo-2-fluoro-4-(((hexahydro-1H-pyrrolizin-7a-yl)methyl)amino)-N-(thiazol-2-yl)benzenesulfonamide] are 8.30 and 670.
As to `N#Cc1cc(S(=O)(=O)Nc2cccc(F)n2)ccc1NCC12CCCN1CCC2` [Ex2-3, 3-cyano-N-(6-fluoropyridin-2-yl)-4-[(tetrahydro-1H-pyrrolizin-7a(5H)-ylmethyl)amino]benzene-sulfonamide], the pIC50 in assay [1] is 6.77. Moreover, the “ratio of Nav1.7 potency:Nav 1.5 potency” value in assay [2] is given as 18.
The like results for `O=S(=O)(Nc1nccs1)c1cc(Cl)c(NCC23CCCN2CCC3)cc1Br` [Ex12-5, 2-bromo-5-chloro-4-(((hexahydro-1H-pyrrolizin-7a-yl)methyl)amino)-N-(thiazol-2-yl)benzenesulfonamide] were, in that order, 7.39 and 288.
As to `N#Cc1cc(S(=O)(=O)Nc2ncc(Cl)s2)ccc1NCC12CCCN1CCC2` [Ex3-4, N-(5-chloro-1,3-thiazol-2-yl)-3-cyano-4-[(tetrahydro-1H-pyrrolizin-7a(5H)-ylmethyl)amino]benzene-sulfonamide], in assay [1], the pIC50 was 6.82. For the same compound, the “ratio of Nav1.7 potency:Nav 1.5 potency” value in assay [2] amounted to 199.
The corresponding values for `O=S(=O)(Nc1ncc(F)s1)c1ccc(NCC23CCCN2CC(F)C3)c(Cl)c1` (single isomer, unassigned) [Ex9-14-B, 3-chloro-4-((((2S,7aR or 2R,7aS)-2-fluoro-hexahydro-1H-pyrrolizin-7a-yl)methyl)amino)-N-(5-fluorothiazol-2-yl)-benzenesulfonamide] are 6.75 and 171.
`CC1(C)CN2CCCC2(CNc2cc(F)c(S(=O)(=O)Nc3ncc(F)s3)cc2Cl)C1` (single isomer, unassigned) [Ex8-21-B, (S or R) 5-chloro-4-(((2,2-dimethylhexahydro-1H-pyrrolizin-7a-yl)methyl)-amino)-2-fluoro-N-(5-fluorothiazol-2-yl)-benzenesulfonamide]: the pIC50 in assay [1] is 7.64. Besides, in assay [2], the “ratio of Nav1.7 potency:Nav 1.5 potency” value is reported as 1290.
The like results for `CC1(C)CN2CCCC2(CNc2cc(F)c(S(=O)(=O)Nc3ncc(Cl)s3)cc2Cl)C1` (single isomer, unassigned) [Ex8-19-A, (R or S) 5-chloro-N-(5-chlorothiazol-2-yl)-4-(((2,2-dimethylhexahydro-1H-pyrrolizin-7a-yl)methyl)amino)-2-fluorobenzenesulfonamide] were, in that order, 7.85 and 812.
The like results for `O=S(=O)(Nc1nccs1)c1ccc(NCC23CCCN2CCC3)c(C(F)(F)F)c1` [Ex1-20, 4-(((hexahydro-1H-pyrrolizin-7a-yl)methyl)amino)-N-(thiazol-2-yl)-3-(trifluoromethyl)benzene-sulfonamide] were, in that order, 7.85 and 765.
In the case of `O=S(=O)(Nc1cccc(F)n1)c1cc(F)c(NCC23CCCN2CCC3)cc1F` [Ex2-4, 2,5-difluoro-N-(6-fluoropyridin-2-yl)-4-[(tetrahydro-1H-pyrrolizin-7a(5H)-ylmethyl)amino]benzene-sulfonamide], in assay [1], the pIC50 was 6.46. The “ratio of Nav1.7 potency:Nav 1.5 potency” value in assay [2] came out at 269.
The corresponding values for `CCc1cc(S(=O)(=O)Nc2nccs2)c(F)cc1NC[C@@]12CCCN1C[C@H](Cc1ccc(OC)cc1)C2` (single isomer, unassigned) [Ex18-5-A] are 8.05 and 315.
The like results for `CCc1cc(S(=O)(=O)Nc2nccs2)c(F)cc1NCC12CCCN1CC(C)(C)C2` (single isomer, unassigned) [Ex18-9-B, (R or S)-4-(((2,2-dimethylhexahydro-1H-pyrrolizin-7a-yl)methyl)-amino)-5-ethyl-2-fluoro-N-(thiazol-2-yl)-benzenesulfonamide] were, in that order, 7.80 and 1870.
For the compound `Cc1csc(NS(=O)(=O)c2cc(Cl)c(NCC34CCCN3CC(C)(C)C4)cc2F)n1` (racemic) [Ex8-25, (R and S)-5-chloro-4-(((2,2-dimethylhexahydro-1H-pyrrolizin-7a-yl)methyl)amino)-2-fluoro-N-(4-methylthiazol-2-yl)benzenesulfonamide], the pIC50 in assay [1] was 7.49. The “ratio of Nav1.7 potency:Nav 1.5 potency” value in assay [2] was 947.
The corresponding values for `O=S(=O)(Nc1ncc(Cl)s1)c1cc(Cl)c(NCC23CCCN2CC(F)(F)C3)cc1F` (racemic) [Ex6-8, (R and S)-5-chloro-N-(5-chloro-1,3-thiazol-2-yl)-4-{[(2,2-difluorotetrahydro-1H-pyrrolizin-7a(5H)-yl)methyl]amino}-2-fluorobenzenesulfonamide] are 5.89 and 19.
On to `O=S(=O)(Nc1ncc(Cl)s1)c1cc(Cl)c(NCC23CCCN2CC2(C3)OCCO2)cc1F` (single isomer, unassigned) [Ex10-9-A, (S or R)-5-chloro-N-(5-chlorothiazol-2-yl)-2-fluoro-4-(((hexahydro-spiro[[1,3]dioxolane-2,2′-pyrrolizin]-7a′-yl)-methyl)amino)-benzenesulfonamide], for which the pIC50 in assay [1] is 7.60. Moreover, the “ratio of Nav1.7 potency:Nav 1.5 potency” value in assay [2] came to 1210.
The corresponding values for `COc1ccc(C[C@@H]2CN3CCC[C@]3(CNc3cc(F)c(S(=O)(=O)Nc4nccs4)cc3Cl)C2)cc1` (single isomer, unassigned) [Ex15-10-B] are 7.52 and 308.
In the case of `O=S(=O)(Nc1ncc(F)s1)c1cc(Cl)c(NCC23CCCN2CC(F)C3)cc1F` (single isomer, unassigned) [Ex9-10-A, 5-chloro-2-fluoro-4-((((2R,7aS or 2S,7aR)-2-fluoro-hexahydro-1H-pyrrolizin-7a-yl)-methyl)amino)-N-(5-fluorothiazol-2-yl)-benzenesulfonamide], the pIC50 in assay [1] was 6.83. For the same compound, the “ratio of Nav1.7 potency:Nav 1.5 potency” value in assay [2] came out at 137.
